Reference: patent US20260374739A1, “SMALL MOLECULAR WEIGHT CHEMICAL COMPOUND TO ANTAGONIZE EPH-EPHRIN TETRAMERIZATION AND INHIBIT BIDIRECTIONAL SIGNALING” (THE BOARD OF REGENTS OF THE UNIVERSITY OF TEXAS SYSTEM, priority 2022, published 2026)
Where two headings read alike, the source gives them in different places.

Tests used:
EphB4-Fc with EB2-His = target: T1, EphB4-Fc with EB2-His (Mus musculus, UniProt P54761); test: Alpha assay EphB4-EB2; assay type: binding; conditions: for antagonism of EphB4-EB2 interaction: Alpha, ELISA, pulldown
T1 construct: soluble EphB ectodomains conjugated to Fc from R&D Systems; mouse EB2-His residues 18-232; purchased R&D Systems (EphB-Fc); Sino Biologicals (EphrinB-His)
T1 sequence (P54761 16-539 limits assumed): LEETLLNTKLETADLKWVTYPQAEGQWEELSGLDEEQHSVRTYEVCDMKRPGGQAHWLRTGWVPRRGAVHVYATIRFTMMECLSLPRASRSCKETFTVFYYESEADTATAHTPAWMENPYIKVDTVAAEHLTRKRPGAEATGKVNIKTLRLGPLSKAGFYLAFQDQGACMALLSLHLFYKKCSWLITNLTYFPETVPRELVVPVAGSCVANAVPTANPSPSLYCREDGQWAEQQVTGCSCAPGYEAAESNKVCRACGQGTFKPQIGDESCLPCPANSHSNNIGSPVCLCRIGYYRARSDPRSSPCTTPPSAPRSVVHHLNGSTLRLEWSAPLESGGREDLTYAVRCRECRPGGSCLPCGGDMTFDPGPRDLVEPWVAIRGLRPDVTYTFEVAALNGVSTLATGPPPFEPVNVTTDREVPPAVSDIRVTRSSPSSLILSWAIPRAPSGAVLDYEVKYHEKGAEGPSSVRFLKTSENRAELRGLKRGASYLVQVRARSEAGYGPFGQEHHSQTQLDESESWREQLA
Method: FIG. 5D depicts results from an alpha assay using EphB2-Fc or EphB4-Fc with EB2-His and increasing A20 concentrations to calculate IC50 determination (~10 μM, similar to that found in FIG. 5C).
Protein interaction assays were developed using soluble EphB ectodomains conjugated to Fc from R&D Systems (e.g., rat EphB1-Fc residues 18-538, which is 99.4% identical to human) and EphrinB ectodomains conjugated to His from Sino Biologicals (e.g., mouse EB2-His residues 18-232, which is 97.7% identical to human). Titrating concentrations of the EphB1-Fc ectodomain (or unconjugated Fc protein as negative control) was added with titrating amounts of the three different EphrinB ectodomains (EB1-His, EB2-His, or EB3-His) with 125 ng each of the Protein A donor, anti-6×-His acceptor beads, 2% DMSO, and 1× HiBlock buffer (all from PerkinElmer) in 384 well plates, and after 3 hr incubation at RT were read in an Envision Multilabel Reader 2102. […] No signal above background (<1,500) was detected for wells that contained an Fc control protein and the EB-His proteins or just the EphB1-Fc protein and no EB-His protein.
A20, E13, and other compounds from the top 32 hits were then characterized in pulldown assays. EphB1-Fc was immobilized onto Protein A agarose beads, then mixed with compounds and the soluble EB2-His ectodomain for 1 hr at RT, after which protein complexes were washed and then bound EB2 was detected by immunoblot using anti-His antibodies.

aqueous solubility = assay type: physicochemical; conditions: for solubility in water: salt forms
Method: FIG. 45 depicts tests of salt forms of A20 and A20-1 for aqueous solubility. Compounds were provided to the UT Southwestern PK Core facility and tested for soluble in water. While both are quite soluble, A20 salt was especially so and can be made into a […] solution, whereas A20-I salt can be dissolved into >15% solution.
A study was conducted with A20 salt dissolved solely in PBS and injected at 20 mg/kg to match the previously described study of the free-base. […] The results from the brain, spinal cord, and liver tissues are particularly outstanding and indicate that significant levels of A20 salt remain even after the final collection at 24 hr time point.
To examine the drug-like nature of the disclosed compounds, tests for solubility was conducted.

EphB2 = EphB2 phosphorylation in mouse brain after dosing (immunoprecipitation/immunoblot); assay type: in vivo; conditions: 4 days
Method: Wild-type mice aged 10-12 weeks were IP injected every 12 hr for four days with vehicle (PBS) or 10 mg/kg of 2×·HCl salt forms of A20 (in PBS), A20-I (in PBS), or 3511-I, in 94% PBS/6% DMSO) for a total of 8 injections. Exactly 2 hr after final injection of A20 chemical, brains were dissected and frozen at −80 °C. Whole brain protein lysates were then prepared in a Dounce homogenizer using 5 ml PLC lysis buffer, and 1 ml of lysate was used for immunoprecipitation (IP) with 1 μg goat anti-EphB2 antibody, followed by immunoblot (IB) analysis with goat anti-EphB2, rabbit anti-phosphoEphB1/B2 (pEphB1/B2), and mouse anti-EphrinB2 antibodies using appropriate HRP conjugated secondary antibodies and chemiluminescent detection methods.
FIG. 79A depicts an illustrative immunoblot showing expression of EphB2, phospho-EphB1/B2, and EphrinB2 (co-IP) in the mouse brains. […] The level of co-immunoprecipitated EphrinB2 from the brains of A20 chemical injected animals was generally lower as indicated by fainter bands. FIGS. 79B and 79C show quantification of band intensities (number of photons detected) to obtain ratios of pEphB/EphB2 as a measure of EphB2 receptor activation levels (FIG. 79B) and ratios of EphrinB2/EphB2 as a measure of how much EphrinB2 is co-immunoprecipitated with the EphB2 receptor (FIG. 79C).
Whole brain protein lysates were prepared from wild-type mice either oral dosed (PO) or injected (IP) for 4 days with vehicle (PBS) or 20 mg/kg of 2×·HCl salt drugs of A20 or A20-I every 12 hr, with last ([…]) dose staggered such that brain dissections happened 2 hr after final drug dosing. EphB2 was immunoprecipitated from 1 ml of protein lysate using 1 μg of goat anti-EphB2 antibodies and then precipitated proteins immunoblotted with goat anti-EphB2, rabbit anti-pTyr1000, and mouse 4G10 antibodies using appropriate HRP conjugated secondary antibodies and chemiluminescent detection methods.
The pTry1000 and 4G10 immunoblots (FIG. 80B and FIG. 80C, respectively), which both recognize tyrosine phosphorylated proteins and are readouts for the activated EphB2 tyrosine kinase catalytic domain, both show strong tyrosine phosphorylation of the receptor in 3 of 4 vehicle (V) control lanes. […] The results shown here also highlight our finding that when EphB2 is tyrosine phosphorylated and catalytically activate in the intact brain, the protein migrates much slower in the SDS-PAGE gels with apparent migration in distinct bands-220-260 kDa (green arrows in FIGS. 80B and 80C), as opposed to the typical migration of unphosphorylated EphB2 protein at 125 kDa (black arrow in FIG. 80A).

[1] = water, read-out: aqueous solubility

Oc1c(Cl)cc(CN2CCOCC2)c2cccnc12 [Compound 3, 7-chloro-5-(morpholinomethyl)quinolin-8-ol]
antagonism of EphB4-EB2 interaction (EphB4-Fc with EB2-His): very little if any effect on the EphB4-EB2 interaction

Oc1c(Br)cc(CN2CCOCC2)c2cccnc12 [Compound 5, 7-bromo-5-(morpholinomethyl)quinolin-8-ol]
solubility in water (aqueous solubility): extremely soluble in water
activated phosphorylated EphB2 in brain (EphB2; IP 10 mg/kg every 12 hr): generally lower level of activated phosphorylated EphB2 in the brain
activated phosphorylated EphB2 in brain (EphB2; PO or IP 20 mg/kg every 12 hr): lower levels of activated phosphorylated EphB2 in the brain
IC50 (EphB4-Fc with EB2-His; EphB4-EB2): > 150 µM

Oc1c(Br)cc(CN2CCOCC2)c2cccnc12 [Compound 6, 4-((7-bromo-8-hydroxyquinolin-1-ium-5-yl)methyl)morpholin-4-ium chloride]
solubility (aqueous solubility; water or pbs, aqueous buffer, read-out: solubility in water or PBS): > 50 mg/mL
solubility (aqueous solubility; [1]): > 1000 mg/mL

Oc1c(I)cc(CN2CCOCC2)c2cccnc12 [Compound 7, 7-iodo-5-(morpholinomethyl)quinolin-8-ol]
solubility in water (aqueous solubility): extremely soluble in water
activated phosphorylated EphB2 in brain (EphB2; IP 10 mg/kg every 12 hr): generally lower level of activated phosphorylated EphB2 in the brain
activated phosphorylated EphB2 in brain (EphB2; PO or IP 20 mg/kg every 12 hr): lower levels of activated phosphorylated EphB2 in the brain

Oc1c(I)cc(CN2CCOCC2)c2cccnc12 [Compound 8, 4-((8-hydroxy-7-iodoquinolin-1-ium-5-yl)methyl)morpholin-4-ium chloride]
solubility (aqueous solubility; [1]): > 150 mg/mL

COc1ccccc1N1CCN(Cc2cc(Br)c(O)c3ncccc23)CC1 [Compound 70, 7-bromo-5-((4-(2-methoxyphenyl)piperazin-1-yl)methyl)quinolin-8-ol]
antagonism of EphB4-EB2 interaction (EphB4-Fc with EB2-His): very little if any effect on the EphB4-EB2 interaction

COc1ccccc1N1CCN(Cc2cc(I)c(O)c3ncccc23)CC1 [Compound 71, 7-iodo-5-((4-(2-methoxyphenyl)piperazin-1-yl)methyl)quinolin-8-ol]
activated phosphorylated EphB2 in brain (EphB2; IP 10 mg/kg every 12 hr): generally lower level of activated phosphorylated EphB2 in the brain
